Four compounds from US20200369630A1, “HERBICIDALLY ACTIVE 3-PHENYL-5-TRIFLUOROMETHYLISOXAZOLINE-5-CARBOXAMIDES OF CYCLOPENTYLCARBOXYLIC ACIDS AND ESTERS” (Bayer Aktiengesellschaft, priority 2017, published 2020) can be followed below.

Holding throughout (assay type): in vivo
For test [1], the system named is ECHCG: Echinochloa crus-galli. The test can be described thus: Pre-emergence herbicidal action. The conditions noted are these: Table C1, pre-emergence, 80 g/ha, scored visually after about 3 weeks. An excerpt:
(§1) Seeds of monocotyledonous and dicotyledonous weed plants and crop plants are placed in plastic or wood fiber pots and covered with soil. The compounds of the invention, formulated in the form of wettable powders (WP) or as emulsion concentrates (EC), are then applied onto the surface of the covering soil as aqueous suspension or emulsion with addition of 0.5% additive at a water application rate of […] (converted). After the treatment, the pots are placed in a greenhouse and kept under good growth conditions for the trial plants. After about 3 weeks, the effect of the preparations is scored visually in comparison with untreated controls as percentages. For example, 100% activity=the plants have died, 0% activity=like control plants. [table]

Test [2] has as its system SETVI: Setaria viridis. The test can be described thus: Pre-emergence herbicidal action.
Description: as §1

The subject of test [3] is AVEFA: Avena fatua. The test can be described thus: Pre-emergence herbicidal action.
Description: as §1

Test [4] has as its system ABUTH: Abutilon theophrasti. The test can be described thus: Pre-emergence herbicidal action. The note with it: Table C1, pre-emergence, 80 g/ha, scored visually after about 3 weeks.
Description: as §1

Test [5] concerns HORMU: Hordeum murinum. The test can be described thus: Pre-emergence herbicidal action. The note with it: Table C1, pre-emergence, 80 g/ha, scored visually after about 3 weeks.
Description: as §1

The subject of test [6] is VIOTR: Viola tricolor. The test can be described thus: Pre-emergence herbicidal action.
Description: as §1

The test system of test [7] is VERPE: Veronica persica. The test can be described thus: Pre-emergence herbicidal action.
Description: as §1

In test [8] the test system is AMARE: Amaranthus retroflexus. The test can be described thus: Pre-emergence herbicidal action.
Description: as §1

For test [9], the system named is STEME: Stellaria media. The test can be described thus: Pre-emergence herbicidal action.
Description: as §1

The subject of a further test is PHBPU: Ipomoea purpurea. The test can be described thus: Pre-emergence herbicidal action. The conditions noted are these: Table C1, pre-emergence, 80 g/ha, scored visually after about 3 weeks.
Description: as §1

The test system of test [10] is LOLRI: Lolium rigidum. The test can be described thus: Pre-emergence herbicidal action. The conditions noted are these: Table C1, pre-emergence, 80 g/ha, scored visually after about 3 weeks.
Description: as §1

The test system of test [11] is MATIN: Matricaria inodora. The test can be described thus: Pre-emergence herbicidal action. The conditions noted are these: Table C1, pre-emergence, 80 g/ha, scored visually after about 3 weeks.
Description: as §1

Test [12] relates to ALOMY: Alopecurus myosuroides. The test can be described thus: Pre-emergence herbicidal action.
Description: as §1

For test [13], the system named is ECHCG: Echinochloa crus-galli. The test can be described thus: Post-emergence herbicidal action. The conditions noted are these: rated visually after about 3 weeks. The procedure: (§2) [table] Seeds of monocotyledonous and dicotyledonous weeds and crop plants are placed in sandy loam in plastic or wood-fiber pots, covered with soil and cultivated in a greenhouse under controlled growth conditions. 2 to 3 weeks after sowing, the test plants are treated at the one-leaf stage. The compounds of the invention, formulated in the form of wettable powders (WP) or as emulsion concentrates (EC), are then sprayed onto the green parts of the plants as aqueous suspension or emulsion with addition of 0.5% additive at a water application rate of […] (converted). After the test plants had been kept in the greenhouse under optimum growth conditions for about 3 weeks, the activity of the preparations is rated visually in comparison to untreated controls. For example, 100% activity=the plants have died, 0% activity=like control plants.

The test system of test [14] is AVEFA: Avena fatua. The test can be described thus: Post-emergence herbicidal action. The conditions noted are these: rated visually after about 3 weeks. The protocol: as §2
Test [15] has as its system HORMU: Hordeum murinum. The test can be described thus: Post-emergence herbicidal action. The conditions noted are these: rated visually after about 3 weeks. The protocol: as §2
The test system of test [16] is VERPE: Veronica persica. The test can be described thus: Post-emergence herbicidal action. The note with it: rated visually after about 3 weeks. The procedure:
as §2

Test [17] deals with POLCO: Polygonum convolvulus. The test can be described thus: Post-emergence herbicidal action. The conditions noted are these: rated visually after about 3 weeks. The protocol:
as §2

The test system of test [18] is AMARE: Amaranthus retroflexus. The test can be described thus: Post-emergence herbicidal action. The note with it: rated visually after about 3 weeks. The procedure:
as §2

Test [19] deals with STEME: Stellaria media. The test can be described thus: Post-emergence herbicidal action. The procedure:
as §2

Test [20] relates to LOLRI: Lolium rigidum. The test can be described thus: Post-emergence herbicidal action. The conditions noted are these: rated visually after about 3 weeks. The protocol: as §2
Test [21] has as its system ALOMY: Alopecurus myosuroides. The test can be described thus: Post-emergence herbicidal action. The note with it: rated visually after about 3 weeks. The protocol:
as §2

In test [22] the test system is SETVI: Setaria viridis. The test can be described thus: Post-emergence herbicidal action. The conditions noted are these: Table C3, post-emergence, 320 g/ha, rated visually after about 3 weeks. The protocol: as §2
Test [23] deals with VIOTR: Viola tricolor. The test can be described thus: Post-emergence herbicidal action. The note with it: Table C3, post-emergence, 320 g/ha, rated visually after about 3 weeks. The procedure: as §2
In a further test the test system is DIGSA. The test can be described thus: Post-emergence herbicidal action. The conditions noted are these: Table C3, post-emergence, 320 g/ha, rated visually after about 3 weeks. The procedure: as §2, with “Seeds” for “[table] Seeds”
In test [24] the test system is ABUTH: Abutilon theophrasti. The test can be described thus: Post-emergence herbicidal action. The conditions noted are these: Second Table C3, superiority with respect to WO 2012/130798, post-emergence, 80 g/ha. The protocol: as §2
In test [25] the test system is POLCO: Polygonum convolvulus. The test can be described thus: Pre-emergence herbicidal action. The conditions noted are these: Table C1, pre-emergence, 80 g/ha, scored visually after about 3 weeks.
Description: as §1

Setting [26] is: Table C1, pre-emergence, 80 g/ha, scored visually after about 3 weeks.
Where [27] appears, read: Table C2, post-emergence, dosage 320 (0.32 kg of active substance per hectare).
The mark [28] stands for this setting: Table C3, post-emergence, 320 g/ha.
Where [29] appears, read: Second Table C4, superiority with respect to WO 2012/130798, pre-emergence, 20 g/ha.
Where [30] appears, read: Table C4, post-emergence, 320 g/ha.

For the compound `O=C(OCCCl)C1CCC(NC(=O)C2(C(F)(F)F)CC(c3cc(F)cc(F)c3)=NO2)C1` (mixture of isomers) [Example I-99], the “Herbicidal action against [%] ECHCG” value in test [1] and in test [13] (setting [27]) was 90% in each case. Further, in the test with SETVI: Setaria viridis [2] (setting [26]), the “Herbicidal action against [%] SETVI” value was determined as 100%. For the same compound, the “Herbicidal action against [%] AVEFA” value with AVEFA: Avena fatua [3] (setting [26]) and in the test with AVEFA: Avena fatua [14] (setting [27]) was 90% throughout. Further, the “Herbicidal action against [%] ABUTH” value in test [4] amounted to 80%. The “Herbicidal action against [%] HORMU” value is 100% in the test on HORMU: Hordeum murinum [5] and 90% in the test with HORMU: Hordeum murinum [15] (setting [27]). Besides, in the test with VIOTR: Viola tricolor [6] (setting [26]), the “Herbicidal action against [%] VIOTR” value is 100%. Further, the “Herbicidal action against [%] VERPE” value with VERPE: Veronica persica [7] (setting [26]) turned out to be 100%; in the test with VERPE: Veronica persica [16] (setting [27]) it was 90%. The “Herbicidal action against [%] AMARE” value in test [8] (setting [26]) was 100%; in test [18] (setting [27]), 90%. Further, the “Herbicidal action against [%] STEME” value with STEME: Stellaria media [9] (setting [26]) is reported as 100%; in the test on STEME: Stellaria media [19] (Table C2, post-emergence, dosage 320 (0.32 kg of active substance per hectare), rated visually after about 3 weeks), 90%. Also, the “Herbicidal action against [%] PHBPU” value in the test on PHBPU: Ipomoea purpurea is 90%. For the same compound, the “Herbicidal action against [%] LOLRI” value in the test with LOLRI: Lolium rigidum [10] and in the test on LOLRI: Lolium rigidum [20] (setting [27]) was 100% each time. In addition, in [11], the “Herbicidal action against [%] MATIN” value was 80%. Further, the “Herbicidal action against [%] ALOMY” value in [12] (setting [26]) was determined as 100%; in [21] (setting [27]), 90%. Also, the “Herbicidal action against [%] POLCO” value in [17] (setting [27]) worked out at 80%.
With `CCOC(=O)C1CCC(NC(=O)C2(C(F)(F)F)CC(c3cc(C)cc(Cl)c3)=NO2)C1` (mixture of isomers) [Example I-808], the “Herbicidal action against [%] ECHCG” value in [13] (setting [28]) was found to be 80%. Moreover, in the test on SETVI: Setaria viridis [22], the “Herbicidal action against [%] SETVI” value was 90%. Also, the “Herbicidal action against [%] AVEFA” value in the test on AVEFA: Avena fatua [14] (setting [28]) was 90%. The “Herbicidal action against [%] HORMU” value with HORMU: Hordeum murinum [15] (setting [28]) is 90%. Besides, the “Herbicidal action against [%] VIOTR” value in the test on VIOTR: Viola tricolor [23] is 80%. In the test on VERPE: Veronica persica [16] (setting [28]), the “Herbicidal action against [%] VERPE” value is listed as 90%. In addition, in [17] (setting [28]), the “Herbicidal action against [%] POLCO” value is recorded as 100%. In test [18] (setting [28]), the “Herbicidal action against [%] AMARE” value amounted to 80%. Besides, in the test with LOLRI: Lolium rigidum [20] (setting [28]), the “Herbicidal action against [%] LOLRI” value came out at 90%. In addition, the “Herbicidal action against [%] ALOMY” value in test [21] (setting [28]) is 90%. Besides, the “Herbicidal action against [%] DIGSA” value with DIGSA is 90%.
As to `CCOC(=O)C1CCC(NC(=O)C2(C)CC(c3cc(F)cc(F)c3)=NO2)C1` (centres unmarked) [Example 6.736, reference compound], the “Herbicidal action against [%] SETVI” value in the test on SETVI: Setaria viridis [2] (setting [29]) stood at 20%. The “Herbicidal action against [%] AVEFA” value with AVEFA: Avena fatua [3] (setting [29]) was 50%. The “Herbicidal action against [%] VIOTR” value with VIOTR: Viola tricolor [6] (setting [29]) worked out at 0%. Besides, the “Herbicidal action against [%] VERPE” value with VERPE: Veronica persica [7] (setting [29]) was 70%. For the same compound, the “Herbicidal action against [%] AMARE” value in [8] (setting [29]) is 0%. The “Herbicidal action against [%] STEME” value in the test with STEME: Stellaria media [9] (setting [29]) is 50%; in the test with STEME: Stellaria media [19] (Second Table C3, superiority with respect to WO 2012/130798, post-emergence, 80 g/ha) it was 50%. Moreover, the “Herbicidal action against [%] ALOMY” value in [12] (setting [29]) is 70%. In test [24], the “Herbicidal action against [%] ABUTH” value is 60%.
In the case of `CCOC(=O)[C@@H]1CC[C@H](NC(=O)[C@@]2(C(F)(F)F)CC(c3cc(F)cc(F)c3)=NO2)C1` [Example I-39, ethyl (1R,3S)-3-({[(5R)-3-(3,5-difluorophenyl)-5-(trifluoromethyl)-4,5-dihydro-1,2-oxazol-5-yl]carbonyl}amino)cyclopentanecarboxylate], the “Herbicidal action against [%] ECHCG” value in test [1] is reported as 100%. The “Herbicidal action against [%] SETVI” value in the test on SETVI: Setaria viridis [2] (setting [26]) turned out to be 100%. In addition, the “Herbicidal action against [%] AVEFA” value in the test with AVEFA: Avena fatua [3] (setting [26]) amounted to 100%. For the same compound, the “Herbicidal action against [%] ABUTH” value in test [4] came to 70%. In addition, the “Herbicidal action against [%] HORMU” value with HORMU: Hordeum murinum [5] worked out at 90%; in the test on HORMU: Hordeum murinum [15] (setting [30]), 100%. For the same compound, the “Herbicidal action against [%] VIOTR” value in the test on VIOTR: Viola tricolor [6] (setting [26]) worked out at 100%. Besides, the “Herbicidal action against [%] POLCO” value is on record as 100% in test [25] and 80% in [17] (setting [30]). In addition, the “Herbicidal action against [%] AMARE” value was found to be 100% in [8] (setting [26]) and 80% in test [18] (setting [30]). Moreover, the “Herbicidal action against [%] PHBPU” value with PHBPU: Ipomoea purpurea was determined as 80%. Also, the “Herbicidal action against [%] LOLRI” value is on record as 100% with LOLRI: Lolium rigidum [10] and 90% with LOLRI: Lolium rigidum [20] (setting [30]). In addition, in test [11], the “Herbicidal action against [%] MATIN” value came to 90%. In addition, the “Herbicidal action against [%] ALOMY” value in test [12] (setting [26]) and in [21] (setting [30]) was 100% in each case.
